Assay results from patent US9249131B2, “Modulators of ATP-binding cassette transporters” (Vertex Pharmaceuticals Incorporated, priority 2003, dated 2016).

Biological target: T1, ΔF508-CFTR (Homo sapiens, UniProt P13569, DEL508-508)
T1 construct: expressed in transfected cells; host or cells: NIH3T3 mouse fibroblasts stably expressing ΔF508-CFTR for the optical, whole-cell and single-channel assays; Fisher rat epithelial (FRT) cells for Ussing chamber follow-up
Assay: Assays for ΔF508-CFTR correction and potentiator properties (membrane potential optical and electrophysiological methods)
Type: cell-based
Conditions: CFTR modulation; for % Activity: % Efficacy; for EC50: tested using the above methods
Description: Assays for Detecting and Measuring ΔF508-CFTR Correction and Potentiator Properties of Compounds
A) Membrane Potential Optical Methods for Assaying ΔF508-CFTR Modulation Properties of Compounds
The optical membrane potential assay utilized voltage-sensitive FRET sensors described by Gonzalez and Tsien (See, Gonzales, J. E. and R. Y. Tsien (1995) “Voltage sensing by fluorescence resonance energy transfer in single cells” Biophys J 69 (4): 1272-80, and Gonzalez, J. E. and R. Y. Tsien (1997) “Improved indicators of cell membrane potential that use fluorescence resonance energy transfer” Chem Biol 4 (4): 269-77) in combination with instrumentation for measuring fluorescence changes such as the Voltage/Ion Probe Reader (VIPR) (See, Gonzalez, J. E., K. Oades, et al. (1999) “Cell-based assays and instrumentation for screening ion-channel targets” Drug Discov Today 4 (9): 431-439).
These voltage sensitive assays are based on the change in fluorescence resonant energy transfer (FRET) between the membrane-soluble, voltage-sensitive dye, DiSBAC2 (3), and a fluorescent phospholipid, CC2-DMPE, which is attached to the outer leaflet of the plasma membrane and acts as a FRET donor. Changes in membrane potential (Vm) cause the negatively charged DiSBAC2(3) to redistribute across the plasma membrane and the amount of energy transfer from CC2-DMPE changes accordingly. The changes in fluorescence emission were monitored using VIPR™ II, which is an integrated liquid handler and fluorescent detector designed to conduct cell-based screens in 96- or 384-well microtiter plates.
To identify small molecules that correct the trafficking defect associated with ΔF508-CFTR; a single-addition HTS assay format was developed. The cells were incubated in serum-free medium for 16 hrs at 37° C. in the presence or absence (negative control) of test compound. As a positive control, cells plated in 384-well plates were incubated for 16 hrs at 27° C. to “temperature-correct” ΔF508-CFTR. The cells were subsequently rinsed 3× with Krebs Ringers solution and loaded with the voltage-sensitive dyes. To activate ΔF508-CFTR, […] and the CFTR potentiator, genistein ([…]), were added along with Cl^−-free medium to each well. The addition of Cl^−-free medium promoted Cl^− efflux in response to ΔF508-CFTR activation and the resulting membrane depolarization was optically monitored using the FRET-based voltage-sensor dyes.
To identify potentiators of ΔF508-CFTR, a double-addition HTS assay format was developed. During the first addition, a Cl^−-free medium with or without test compound was added to each well. After 22 sec, a second addition of Cl^−-free medium containing 2-10 µM forskolin was added to activate ΔF508-CFTR. The extracellular Cl^− concentration following both additions was 28 mM, which promoted Cl^− efflux in response to ΔF508-CFTR activation and the resulting membrane depolarization was optically monitored using the FRET-based voltage-sensor dyes.
• Bath Solution #1: (in mM) NaCl 160, KCl 4.5, CaCl2 2, MgCl2 1, HEPES 10, pH 7.4 with NaOH. • Chloride-free bath solution: Chloride salts in Bath Solution #1 are substituted with gluconate salts. • CC2-DMPE: Prepared as a 10 mM stock solution in DMSO and stored at −20° C. • DiSBAC2(3): Prepared as a 10 mM stock in DMSO and stored at −20° C. Cell Culture
NIH3T3 mouse fibroblasts stably expressing ΔF508-CFTR are used for optical measurements of membrane potential. The cells are maintained at 37° C. in 5% CO2 and 90% humidity in Dulbecco's modified Eagle's medium supplemented with 2 mM glutamine, 10% fetal bovine serum, 1×NEAA, β-ME, 1×pen/strep, and 25 mM HEPES in 175 cm^2 culture flasks. For all optical assays, the cells were seeded at 30,000/well in 384-well matrigel-coated plates and cultured for 2 hrs at 37° C. before culturing at 27° C. for 24 hrs. for the potentiator assay. For the correction assays, the cells are cultured at 27° C. or 37° C. with and without compounds for 16-24 hours.

T1 sequence (P13569 with tags, fused parts or gaps DEL508-508): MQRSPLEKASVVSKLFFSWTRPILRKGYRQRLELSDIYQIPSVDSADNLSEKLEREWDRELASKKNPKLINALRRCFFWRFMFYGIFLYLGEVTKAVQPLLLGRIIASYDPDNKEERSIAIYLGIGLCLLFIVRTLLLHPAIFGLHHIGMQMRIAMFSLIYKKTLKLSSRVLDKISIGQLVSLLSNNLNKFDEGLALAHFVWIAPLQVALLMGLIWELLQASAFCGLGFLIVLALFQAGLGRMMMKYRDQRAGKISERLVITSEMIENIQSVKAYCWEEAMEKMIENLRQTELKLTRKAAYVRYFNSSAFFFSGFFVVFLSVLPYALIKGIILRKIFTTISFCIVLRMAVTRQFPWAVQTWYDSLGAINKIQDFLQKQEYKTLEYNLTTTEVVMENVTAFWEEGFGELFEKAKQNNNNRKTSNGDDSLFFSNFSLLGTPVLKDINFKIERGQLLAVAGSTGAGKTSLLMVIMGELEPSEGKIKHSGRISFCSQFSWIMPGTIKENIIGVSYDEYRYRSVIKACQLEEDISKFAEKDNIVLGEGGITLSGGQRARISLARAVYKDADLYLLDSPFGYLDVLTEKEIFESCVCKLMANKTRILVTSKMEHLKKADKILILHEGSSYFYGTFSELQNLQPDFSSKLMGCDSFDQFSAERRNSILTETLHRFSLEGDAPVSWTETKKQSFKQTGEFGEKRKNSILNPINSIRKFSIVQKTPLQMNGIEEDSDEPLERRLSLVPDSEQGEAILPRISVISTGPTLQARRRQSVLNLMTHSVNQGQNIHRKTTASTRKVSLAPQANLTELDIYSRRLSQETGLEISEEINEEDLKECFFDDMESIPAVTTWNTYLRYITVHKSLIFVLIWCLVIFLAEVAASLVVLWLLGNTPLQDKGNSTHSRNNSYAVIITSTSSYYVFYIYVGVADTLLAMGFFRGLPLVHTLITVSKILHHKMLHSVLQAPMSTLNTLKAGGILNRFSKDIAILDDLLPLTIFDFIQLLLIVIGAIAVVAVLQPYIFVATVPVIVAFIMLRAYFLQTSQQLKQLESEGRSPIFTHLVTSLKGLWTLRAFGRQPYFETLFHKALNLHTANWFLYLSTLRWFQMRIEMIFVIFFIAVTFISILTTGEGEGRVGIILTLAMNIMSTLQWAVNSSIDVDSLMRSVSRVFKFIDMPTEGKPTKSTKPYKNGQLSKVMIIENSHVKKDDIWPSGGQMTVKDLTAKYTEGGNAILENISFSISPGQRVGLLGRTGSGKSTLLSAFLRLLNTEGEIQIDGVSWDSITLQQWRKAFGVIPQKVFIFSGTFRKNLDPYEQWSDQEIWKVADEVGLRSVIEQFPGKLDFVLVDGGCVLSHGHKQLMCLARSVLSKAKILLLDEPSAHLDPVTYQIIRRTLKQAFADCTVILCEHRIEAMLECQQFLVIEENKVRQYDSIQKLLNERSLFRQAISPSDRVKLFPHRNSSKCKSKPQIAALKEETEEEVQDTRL

Row | SMILES | % Activity | EC50
1 | CCOc1ccc2nc(NC(=O)C3CCCCC3)sc2c1 [compound 1] | ++ (“++” means between 25% to 100%) | 10 to 25 µM
2 | Cc1ccc(-c2csc(NC(=O)c3ccccc3)n2)c(C)c1 [compound 2] | +++ (“+++” means >100%) | < 10 µM
3 | CCCCC(=O)Nc1nc(-c2cc(C)ccc2C)cs1 [compound 3] | ++ (“++” means between 25% to 100%) | 10 to 25 µM
4 | COc1ccccc1-c1csc(NC(=O)c2ccc(C)cc2)n1 [compound 4] | ++ (“++” means between 25% to 100%) | < 10 µM
5 | COc1ccccc1-c1csc(NC(=O)c2cccc(C)c2)n1 [compound 5] | ++ (“++” means between 25% to 100%) | 10 to 25 µM
6 | COc1ccc(C(=O)Nc2nc(-c3ccccc3OC)cs2)cc1 [compound 6] | ++ (“++” means between 25% to 100%) | 10 to 25 µM
7 | COc1cccc(C(=O)Nc2nc(-c3ccccc3OC)cs2)c1 [compound 7] | +++ (“+++” means >100%) | 10 to 25 µM
8 | O=C(Nc1nc2c(s1)CCCC2)c1cccc(Br)c1 [compound 8] | +++ (“+++” means >100%) | < 10 µM
9 | O=C(Nc1nc(-c2cccs2)cs1)c1cccc(Br)c1 [compound 9] | ++ (“++” means between 25% to 100%) | < 10 µM
10 | CCc1ccc(C(=O)Nc2nc3ccccc3s2)cc1 [compound 10] | +++ (“+++” means >100%) | 10 to 25 µM
11 | CCCc1ccc(C(=O)Nc2nc3ccccc3s2)cc1 [compound 11] | +++ (“+++” means >100%) | 10 to 25 µM
12 | CCCCc1ccc(C(=O)Nc2nc3ccccc3s2)cc1 [compound 12] | +++ (“+++” means >100%) | < 10 µM
13 | COc1ccc(-c2ccc(C(=O)Nc3nccs3)cc2)cc1 [compound 13] | ++ (“++” means between 25% to 100%) | < 10 µM
14 | COc1ccc(-c2ccc(C(=O)Nc3nc4ccccc4s3)cc2)cc1 [compound 14] | ++ (“++” means between 25% to 100%) | < 10 µM
15 | COc1ccc(-c2ccc(C(=O)Nc3nc4ccc(OC)cc4s3)cc2)cc1 [compound 15] | ++ (“++” means between 25% to 100%) | < 10 µM
16 | CCCCc1ccc(C(=O)Nc2nccs2)cc1 [compound 16] | +++ (“+++” means >100%) | < 10 µM
17 | O=C(Nc1nc(-c2ccccc2)cs1)C12CC3CC(CC(C3)C1)C2 [compound 17] | ++ (“++” means between 25% to 100%) | < 10 µM
18 | O=C(Nc1ncc(-c2ccccc2)s1)c1ccccc1 [compound 18] | ++ (“++” means between 25% to 100%) | 10 to 25 µM
19 | O=C(Nc1ncc(Cc2ccccc2Cl)s1)c1ccccc1Cl [compound 19] | ++ (“++” means between 25% to 100%) | 10 to 25 µM
20 | O=C(O)CSCC(=O)Nc1nc(-c2ccccc2)c(-c2ccccc2)s1 [compound 20] | ++ (“++” means between 25% to 100%) | 10 to 25 µM
21 | O=C(Nc1nc(-c2ccccc2)cs1)c1ccccc1 [compound 21] | ++ (“++” means between 25% to 100%) | 10 to 25 µM
22 | O=C(Nc1ncc(Cc2cccc(Cl)c2Cl)s1)C1CC1 [compound 22] | ++ (“++” means between 25% to 100%) | 10 to 25 µM
23 | O=C(Nc1ncc(Cc2cccc(Cl)c2)s1)c1ccccc1 [compound 23] | ++ (“++” means between 25% to 100%) | < 10 µM
24 | CCC(C(=O)Nc1nc2ccc(C)cc2s1)c1ccccc1 (stereo not shown) [compound 24] | +++ (“+++” means >100%) | 10 to 25 µM

Row | SMILES | % Activity | EC50
25 | O=C(Nc1ncc(Cc2ccccc2)s1)C(c1ccccc1)c1ccccc1 [compound 25] | ++ (“++” means between 25% to 100%) | < 10 µM
26 | O=C(Nc1ncc(Cc2ccccc2Cl)s1)c1cccc2ccccc12 [compound 26] | ++ (“++” means between 25% to 100%) | 10 to 25 µM
27 | COc1ccc(Cc2cnc(NC(=O)C(c3ccccc3)c3ccccc3)s2)cc1 [compound 27] | ++ (“++” means between 25% to 100%) | < 10 µM
28 | O=C(Nc1ncc(Cc2ccccc2Cl)s1)c1ccccc1 [compound 28] | ++ (“++” means between 25% to 100%) | 10 to 25 µM
29 | O=C(Nc1ncc(Cc2ccccc2Cl)s1)C1CCCCC1 [compound 29] | ++ (“++” means between 25% to 100%) | < 10 µM
30 | O=C(Nc1ncc(Cc2cc(Cl)ccc2Cl)s1)C1CCCCC1 [compound 30] | +++ (“+++” means >100%) | < 10 µM
31 | O=C(Cc1ccccc1)Nc1ncc(Cc2cccc(Cl)c2)s1 [compound 31] | ++ (“++” means between 25% to 100%) | < 10 µM
32 | O=C(Cc1ccccc1)Nc1ncc(Cc2ccccc2)s1 [compound 32] | ++ (“++” means between 25% to 100%) | 10 to 25 µM
33 | O=C(Nc1ncc(Cc2ccc(Cl)cc2)s1)c1ccccc1Cl [compound 33] | ++ (“++” means between 25% to 100%) | 10 to 25 µM
34 | CC(C)C(C(=O)Nc1nc(-c2ccncc2)cs1)c1ccc(F)cc1F (stereo not shown) [compound 34] | ++ (“++” means between 25% to 100%) | 10 to 25 µM
35 | CC(C)C(C(=O)Nc1nc(-c2ccncc2)cs1)c1ccccc1 (stereo not shown) [compound 35] | ++ (“++” means between 25% to 100%) | 10 to 25 µM
36 | N#CCC(=O)Nc1ncc(Cc2cccc(Cl)c2)s1 [compound 36] | ++ (“++” means between 25% to 100%) | 10 to 25 µM
37 | O=C(Nc1ncc(Cc2ccccc2Cl)s1)C(c1ccccc1)c1ccccc1 [compound 37] | +++ (“+++” means >100%) | < 10 µM
38 | O=C(Nc1ncc(Cc2ccc(Cl)cc2)s1)C(c1ccccc1)c1ccccc1 [compound 38] | ++ (“++” means between 25% to 100%) | < 10 µM
39 | Cc1ccc(C(=O)Nc2nc(-c3ccc(C)cc3)c(-c3ccccc3)s2)cc1 [compound 39] | +++ (“+++” means >100%) | < 10 µM
40 | Cc1ccccc1C(=O)Nc1nc2c(C)cccc2s1 [compound 40] | ++ (“++” means between 25% to 100%) | < 10 µM
41 | Cc1cccc2sc(NC(=O)c3ccccc3Cl)nc12 [compound 41] | ++ (“++” means between 25% to 100%) | < 10 µM
42 | Cc1cccc2sc(NC(=O)c3cccc(Br)c3)nc12 [compound 42] | ++ (“++” means between 25% to 100%) | < 10 µM
43 | O=C(Nc1nc(-c2ccc(Br)cc2)cs1)c1cccc(Cl)c1 [compound 43] | ++ (“++” means between 25% to 100%) | < 10 µM
44 | Cc1ccc(C(=O)Nc2nc(-c3ccccc3)c(C)s2)cc1 [compound 44] | +++ (“+++” means >100%) | 10 to 25 µM
45 | Cc1ccc(-c2nc(NC(=O)c3ccc(C#N)cc3)sc2-c2ccccc2)cc1 [compound 45] | ++ (“++” means between 25% to 100%) | 10 to 25 µM
46 | O=C(Cc1ccccc1)Nc1nc(-c2cccc3ccccc23)cs1 [compound 46] | ++ (“++” means between 25% to 100%) | < 10 µM
47 | Cc1ccc(C(=O)Nc2nc(-c3ccc(C)cc3)cs2)cc1 [compound 47] | ++ (“++” means between 25% to 100%) | 10 to 25 µM
